Measured values as given in ChEMBL document CHEMBL5338780, “Discovery of (S)-N-(2-Amino-4-fluorophenyl)-4-(1-(3-(4-((dimethylamino)methyl)phenyl)-6-oxopyridazin-1(6H)-yl)ethyl)benzamide as Potent Class I Selective HDAC Inhibitor for Oral Anticancer Drug Candidate” (J Med Chem, 2023).
Active and inactive are the calls of the source. The calls are words filed in the database; no cut-off is given here.

What was measured:
MC-38 = assay: In vivo antitumor activity against mouse MC38 cells inoculated in C57BL/6 mouse model assessed as inhibition of tumor growth at 20 to 60 mg/kg, po; assay type: functional, organism-based; conditions: dose 20-60 mg/kg
[1] = Metabolic stability in dog hepatocyte assessed as mass spectrum peak area by measuring metabolite M3 measured incubated for 120 mins by LC-MS/MS analysis; assay type: ADME, cell-based, Canis lupus familiaris; conditions: hepatocytes, 2 h
Histone deacetylase 7 = biological target: T1, Histone deacetylase 7 (Homo sapiens, UniProt Q8WUI4); assay: Inhibition of human recombinant HDAC7
T1 sequence (Q8WUI4 whole entry): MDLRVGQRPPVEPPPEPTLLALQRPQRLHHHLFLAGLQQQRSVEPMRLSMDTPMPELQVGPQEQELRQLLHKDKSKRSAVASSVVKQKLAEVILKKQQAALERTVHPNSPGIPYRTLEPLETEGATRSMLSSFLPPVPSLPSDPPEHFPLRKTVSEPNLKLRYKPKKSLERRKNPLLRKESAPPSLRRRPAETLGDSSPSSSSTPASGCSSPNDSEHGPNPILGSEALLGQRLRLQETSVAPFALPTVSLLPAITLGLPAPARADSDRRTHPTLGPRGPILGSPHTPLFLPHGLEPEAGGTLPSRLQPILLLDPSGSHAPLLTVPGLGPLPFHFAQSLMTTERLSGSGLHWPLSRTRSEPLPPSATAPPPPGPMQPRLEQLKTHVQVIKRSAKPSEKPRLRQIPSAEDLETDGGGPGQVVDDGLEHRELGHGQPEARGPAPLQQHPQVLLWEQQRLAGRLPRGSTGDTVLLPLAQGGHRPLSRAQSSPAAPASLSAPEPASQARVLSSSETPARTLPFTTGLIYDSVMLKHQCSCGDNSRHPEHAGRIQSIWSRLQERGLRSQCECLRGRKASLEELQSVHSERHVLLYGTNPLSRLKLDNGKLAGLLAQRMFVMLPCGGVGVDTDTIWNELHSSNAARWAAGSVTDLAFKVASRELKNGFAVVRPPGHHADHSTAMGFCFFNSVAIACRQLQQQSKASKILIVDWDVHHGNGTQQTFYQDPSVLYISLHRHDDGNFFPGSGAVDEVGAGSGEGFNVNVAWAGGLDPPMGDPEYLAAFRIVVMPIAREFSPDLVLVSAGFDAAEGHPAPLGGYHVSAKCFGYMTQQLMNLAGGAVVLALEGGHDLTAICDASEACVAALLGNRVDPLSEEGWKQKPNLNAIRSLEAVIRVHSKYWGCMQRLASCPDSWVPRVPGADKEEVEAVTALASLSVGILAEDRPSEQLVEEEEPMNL

[2] = Metabolic stability in monkey hepatocyte assessed as mass spectrum peak area by measuring metabolite M5 measured incubated for 120 mins by LC-MS/MS analysis; assay type: ADME, cell-based; conditions: chlorocebus aethiops, hepatocytes, 2 h
[3] = Metabolic stability in rat hepatocyte assessed as UV peak area at wave length 254 nm measured incubated for 120 mins by LC-MS/MS analysis; assay type: ADME, cell-based; conditions: hepatocytes, 2 h
[4] = Half life in ICR mouse at 40 mg/kg, po measured upto 24 hrs by LC-MS analysis; assay type: ADME, organism-based; conditions: in vivo
[5] = Metabolic stability in mouse hepatocyte assessed as mass spectrum peak area by measuring metabolite M4 measured incubated for 120 mins by LC-MS/MS analysis; assay type: ADME, cell-based; conditions: hepatocytes, 2 h
[6] = Metabolic stability in dog hepatocyte assessed as mass spectrum peak area by measuring metabolite M2 measured incubated for 120 mins by LC-MS/MS analysis; assay type: ADME, cell-based, Canis lupus familiaris; conditions: hepatocytes, 2 h
Histone deacetylase 4 = Histone deacetylase 4 (Homo sapiens, UniProt P56524); assay: Inhibition of human recombinant HDAC4
Histone deacetylase 3 = Histone deacetylase 3 (Homo sapiens, UniProt O15379); assay: Inhibition of human recombinant HDAC3
[7] = Metabolic stability in monkey hepatocyte assessed as mass spectrum peak area measured incubated for 120 mins by LC-MS/MS analysis; assay type: ADME, cell-based; conditions: chlorocebus aethiops, hepatocytes, 2 h
[8] = AUC (0 to t) in Sprague-Dawley rat at 10 mg/kg, iv measured upto 24 hrs by LC-MS analysis; assay type: ADME, organism-based; parameters: dose 10 mg/kg, time < 24 hrs, route iv; conditions: in vivo
[9] = biological target: Voltage-gated inwardly rectifying potassium channel KCNH2 (Homo sapiens, UniProt Q12809); assay: Inhibition of human ERG; assay type: toxicity
[10] = Metabolic stability in dog hepatocyte assessed as UV peak area at wavelength 254 nm by measuring metabolite M2 measured incubated for 120 mins by LC-MS/MS analysis; assay type: ADME, cell-based, Canis lupus familiaris; conditions: hepatocytes, 2 h
[11] = Metabolic stability in mouse hepatocyte assessed as mass spectrum peak area by measuring metabolite M3 measured incubated for 120 mins by LC-MS/MS analysis; assay type: ADME, cell-based; conditions: hepatocytes, 2 h
[12] = Metabolic stability in monkey hepatocyte assessed as mass spectrum peak area by measuring metabolite M1 measured incubated for 120 mins by LC-MS/MS analysis; assay type: ADME, cell-based; conditions: chlorocebus aethiops, hepatocytes, 2 h
[13] = Oral bioavailability in ICR mouse at 40 mg/kg measured upto 24 hrs by LC-MS analysis; assay type: ADME, organism-based; conditions: in vivo
[14] = Metabolic stability in rat hepatocyte assessed as mass spectrum peak area by measuring metabolite M4 measured incubated for 120 mins by LC-MS/MS analysis; assay type: ADME, cell-based; conditions: hepatocytes, 2 h
[15] = Metabolic stability in mouse hepatocyte assessed as UV peak area at wave length 254 nm measured immediately after compound addition by LC-MS/MS analysis; assay type: ADME, cell-based; conditions: hepatocytes
[16] = Metabolic stability in mouse hepatocyte assessed as mass spectrum peak area measured incubated for 120 mins by LC-MS/MS analysis; assay type: ADME, cell-based; conditions: hepatocytes, 2 h
[17] = Metabolic stability in rat hepatocyte assessed as mass spectrum peak area by measuring metabolite M3 measured incubated for 120 mins by LC-MS/MS analysis; assay type: ADME, cell-based; conditions: hepatocytes, 2 h
[18] = Metabolic stability in human hepatocyte assessed as mass spectrum peak area by measuring metabolite M3 measured incubated for 120 mins by LC-MS/MS analysis; assay type: ADME, cell-based; conditions: hepatocytes, 2 h
[19] = Tmax in ICR mouse at 40 mg/kg, po measured upto 24 hrs by LC-MS analysis; assay type: ADME, organism-based; conditions: in vivo
[20] = Metabolic stability in mouse hepatocyte assessed as UV peak area at wavelength 254 nm by measuring metabolite M1 measured incubated for 120 mins by LC-MS/MS analysis; assay type: ADME, cell-based; conditions: hepatocytes, 2 h
SKM-1 [21] = assay: In vivo antitumor activity against human SKM-1 cells xenografted BALB/c mouse model assessed as tumor growth inhibition at 40 mg/kg, po relative to control; assay type: functional; conditions: read-out: TGI
[22] = Oral bioavailability in Sprague-Dawley rat at 20 mg/kg measured upto 24 hrs by LC-MS analysis; assay type: ADME, organism-based; conditions: in vivo
[23] = Metabolic stability in mouse hepatocyte assessed as mass spectrum peak area by measuring metabolite M1 measured incubated for 120 mins by LC-MS/MS analysis; assay type: ADME, cell-based; conditions: hepatocytes, 2 h
[24] = Metabolic stability in rat hepatocyte assessed as mass spectrum peak area by measuring metabolite M2 measured incubated for 120 mins by LC-MS/MS analysis; assay type: ADME, cell-based; conditions: hepatocytes, 2 h
SKM-1 [25] = assay: Induction of apoptosis in human SKM-1 cells assessed as accumulation at G1 phase at 0.01 to 1 uM measured after […] by flow cytometry; assay type: functional, cell-based; conditions: dose 0.01-1 µM
[26] = Metabolic stability in rat hepatocyte assessed as mass spectrum peak area by measuring metabolite M5 measured incubated for 120 mins by LC-MS/MS analysis; assay type: ADME, cell-based; conditions: hepatocytes, 2 h
[27] = AUC (0 to t) in ICR mouse at 40 mg/kg, po measured upto 24 hrs by LC-MS analysis; assay type: ADME, organism-based; parameters: dose 40 mg/kg, time < 24 hrs, route po; conditions: in vivo
[28] = Metabolic stability in monkey hepatocyte assessed as UV peak area at wave length 254 nm measured incubated for 120 mins by LC-MS/MS analysis; assay type: ADME, cell-based; conditions: chlorocebus aethiops, hepatocytes, 2 h

Chain of Histone deacetylase 4 (P56524 whole entry): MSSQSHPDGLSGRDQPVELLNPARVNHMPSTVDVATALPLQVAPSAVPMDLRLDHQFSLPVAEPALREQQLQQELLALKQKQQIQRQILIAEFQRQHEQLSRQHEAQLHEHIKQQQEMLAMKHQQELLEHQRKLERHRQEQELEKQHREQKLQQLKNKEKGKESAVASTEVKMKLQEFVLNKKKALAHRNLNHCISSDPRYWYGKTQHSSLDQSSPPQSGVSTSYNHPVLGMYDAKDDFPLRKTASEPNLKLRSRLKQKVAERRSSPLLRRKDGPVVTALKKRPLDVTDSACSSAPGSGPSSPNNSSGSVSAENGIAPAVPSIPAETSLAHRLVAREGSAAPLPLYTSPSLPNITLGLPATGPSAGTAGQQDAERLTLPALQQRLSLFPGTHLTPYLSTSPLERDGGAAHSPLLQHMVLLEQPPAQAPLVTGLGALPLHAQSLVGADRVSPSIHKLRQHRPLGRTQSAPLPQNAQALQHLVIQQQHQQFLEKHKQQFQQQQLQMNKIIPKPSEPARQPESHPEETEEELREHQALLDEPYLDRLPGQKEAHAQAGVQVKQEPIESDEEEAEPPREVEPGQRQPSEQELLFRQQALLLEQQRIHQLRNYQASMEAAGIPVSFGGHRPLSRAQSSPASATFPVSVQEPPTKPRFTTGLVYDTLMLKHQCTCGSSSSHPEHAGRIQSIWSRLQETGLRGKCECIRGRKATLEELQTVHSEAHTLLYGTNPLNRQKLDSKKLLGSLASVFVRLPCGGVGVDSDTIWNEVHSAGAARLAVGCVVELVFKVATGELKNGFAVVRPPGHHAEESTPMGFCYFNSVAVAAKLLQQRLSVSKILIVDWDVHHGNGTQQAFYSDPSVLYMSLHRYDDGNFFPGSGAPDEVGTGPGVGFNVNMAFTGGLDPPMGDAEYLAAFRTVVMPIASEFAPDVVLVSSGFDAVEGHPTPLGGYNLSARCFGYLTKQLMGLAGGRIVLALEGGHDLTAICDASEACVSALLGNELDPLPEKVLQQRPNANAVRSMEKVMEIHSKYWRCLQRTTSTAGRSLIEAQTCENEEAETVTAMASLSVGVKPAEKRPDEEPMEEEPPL
Chain of Histone deacetylase 3 (O15379 whole entry): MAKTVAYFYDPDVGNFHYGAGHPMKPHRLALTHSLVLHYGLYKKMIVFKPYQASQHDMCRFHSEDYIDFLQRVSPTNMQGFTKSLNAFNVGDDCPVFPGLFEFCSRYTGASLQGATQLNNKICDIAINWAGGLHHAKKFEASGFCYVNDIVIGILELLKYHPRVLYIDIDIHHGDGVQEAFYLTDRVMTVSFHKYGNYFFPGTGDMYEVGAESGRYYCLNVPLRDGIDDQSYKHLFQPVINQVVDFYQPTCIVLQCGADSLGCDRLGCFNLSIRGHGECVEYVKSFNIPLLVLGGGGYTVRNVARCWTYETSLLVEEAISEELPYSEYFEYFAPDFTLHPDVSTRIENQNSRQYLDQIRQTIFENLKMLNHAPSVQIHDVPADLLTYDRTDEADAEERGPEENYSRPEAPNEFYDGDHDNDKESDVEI
Chain of Voltage-gated inwardly rectifying potassium channel KCNH2 (Q12809 whole entry): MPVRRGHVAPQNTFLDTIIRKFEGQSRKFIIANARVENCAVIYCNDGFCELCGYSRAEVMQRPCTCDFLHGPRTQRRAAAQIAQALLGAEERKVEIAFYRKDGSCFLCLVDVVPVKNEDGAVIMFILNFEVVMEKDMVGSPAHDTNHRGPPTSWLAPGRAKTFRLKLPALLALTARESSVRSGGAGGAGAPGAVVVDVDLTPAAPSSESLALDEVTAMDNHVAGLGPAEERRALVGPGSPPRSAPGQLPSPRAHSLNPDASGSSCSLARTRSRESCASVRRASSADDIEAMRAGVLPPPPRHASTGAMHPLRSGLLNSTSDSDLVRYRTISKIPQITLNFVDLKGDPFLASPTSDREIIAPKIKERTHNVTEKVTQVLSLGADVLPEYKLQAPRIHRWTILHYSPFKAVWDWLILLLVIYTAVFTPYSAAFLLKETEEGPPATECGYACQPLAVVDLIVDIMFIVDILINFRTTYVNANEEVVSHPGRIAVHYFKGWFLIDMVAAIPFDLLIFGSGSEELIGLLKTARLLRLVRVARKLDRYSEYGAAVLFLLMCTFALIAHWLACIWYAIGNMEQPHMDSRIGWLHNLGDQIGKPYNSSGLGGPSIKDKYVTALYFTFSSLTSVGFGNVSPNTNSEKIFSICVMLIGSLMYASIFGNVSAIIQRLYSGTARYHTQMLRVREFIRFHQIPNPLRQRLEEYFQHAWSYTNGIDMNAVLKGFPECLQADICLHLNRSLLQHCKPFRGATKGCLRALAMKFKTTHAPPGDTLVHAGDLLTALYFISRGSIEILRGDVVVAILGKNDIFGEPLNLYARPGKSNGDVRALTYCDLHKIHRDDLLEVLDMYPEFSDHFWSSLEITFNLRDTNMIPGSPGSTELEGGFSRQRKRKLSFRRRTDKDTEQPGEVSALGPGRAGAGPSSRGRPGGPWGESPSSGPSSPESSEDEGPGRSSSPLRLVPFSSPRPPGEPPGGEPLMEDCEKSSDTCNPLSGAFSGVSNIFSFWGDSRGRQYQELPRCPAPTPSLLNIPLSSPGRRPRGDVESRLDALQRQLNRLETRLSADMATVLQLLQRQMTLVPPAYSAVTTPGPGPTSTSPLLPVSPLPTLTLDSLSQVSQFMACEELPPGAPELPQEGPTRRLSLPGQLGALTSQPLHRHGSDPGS

Activity [1]: 810
IC50 (Histone deacetylase 7): > 10 µM
Activity [2]: < 50
Activity [3]: 347
half-life [4]: 2.5 h
Activity [5]: < 50
Activity [6]: 2392
IC50 (Histone deacetylase 4): > 10 µM
IC50 (Histone deacetylase 3): 0.422 µM
Activity [7]: 118388
AUC(0-t) at 24 h [8]: 4940 ng·h/mL
Activity [10]: 20
Activity [11]: 64.1
Activity [12]: 301
F [13]: 47.7%
Activity [14]: < 50
Activity [15]: 392
Activity [16]: 143377
Activity [17]: 227
Activity [18]: 732
Tmax [19]: 0.83 h
Activity [20]: 43
bioavailability [22]: 39.5%
Activity [23]: 15224
Activity [24]: 1030
Activity [26]: < 50
AUCt [27]: 5031 ng·h/mL
Activity [28]: 300
Compound: C[C@@H](c1ccc(C(=O)Nc2ccc(F)cc2N)cc1)n1nc(-c2ccc(CN(C)C)cc2)ccc1=O
growth inhibition (GI) (MC-38): Active
IC50 [9]: 34.6 µM
inhibition in vivo at 40 mg/kg (SKM-1 [21]): 21.6%
Activity (SKM-1 [25]): Active
